Reference: US20260297070A1, “CYCLIC [COMPOUND LEFT OUT] WRN INHIBITORS” (Nimbus Wadjet, Inc., priority 2023, published 2026)

These compounds were tested against T1, human Werner helicase (WRN-BV08, Uniprot Q14191, amino acids 517-1235 with L1074F point mutation) (Homo sapiens, UniProt Q14191, L1074F) (assay: WRN (BV08) ADP-Glo Assay). Details: 0.15 nM WRN, 5 μM ATP, 0.1 nM DNA duplex, 15 min preincubation, 60 min at 25° C., pH 7.5, 1% DMSO; read-out: ADP-Glo_hWRN_IC50.
T1 construct: Uniprot Q14191, amino acids 517-1235 with L1074F point mutation; TEV-cleavable 8×His (C, cleaved yes); made in house; host or cells: Sf9 insect cells (baculovirus)
T1 sequence (Q14191 with tags, fused parts or gaps L1074F limits assumed): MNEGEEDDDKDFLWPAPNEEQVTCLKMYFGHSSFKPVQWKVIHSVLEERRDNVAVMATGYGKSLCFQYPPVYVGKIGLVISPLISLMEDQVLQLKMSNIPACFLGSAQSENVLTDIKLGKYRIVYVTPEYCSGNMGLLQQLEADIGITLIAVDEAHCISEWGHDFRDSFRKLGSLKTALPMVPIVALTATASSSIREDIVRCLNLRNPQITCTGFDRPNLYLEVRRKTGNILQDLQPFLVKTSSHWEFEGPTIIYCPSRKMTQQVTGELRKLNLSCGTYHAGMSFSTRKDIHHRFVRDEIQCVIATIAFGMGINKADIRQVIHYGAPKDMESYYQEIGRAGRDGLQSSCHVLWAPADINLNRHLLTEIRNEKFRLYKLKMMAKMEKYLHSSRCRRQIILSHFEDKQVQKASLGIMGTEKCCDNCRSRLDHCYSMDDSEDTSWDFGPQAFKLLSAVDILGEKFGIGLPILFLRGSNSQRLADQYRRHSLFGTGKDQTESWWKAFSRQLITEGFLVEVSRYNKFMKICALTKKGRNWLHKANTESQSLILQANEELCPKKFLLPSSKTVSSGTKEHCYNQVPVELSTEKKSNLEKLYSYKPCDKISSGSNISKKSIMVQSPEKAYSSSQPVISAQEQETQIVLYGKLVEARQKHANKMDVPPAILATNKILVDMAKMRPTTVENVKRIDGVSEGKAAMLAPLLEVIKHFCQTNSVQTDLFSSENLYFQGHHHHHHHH
Assay type: biochemical
Outline: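 ADP-Glo luminescence read-out of ATP hydrolysis. Conditions: 0.15 nM WRN, 5 μM ATP, 0.1 nM DNA duplex, 1% DMSO, 60 min at 25 °C after 15 min compound preincubation. Max/min controls were DMSO and 20 μM NSC-617145; IC50 from four-parameter fit.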
With `CN(C)C(=O)C(C(=O)N(Cc1ccnc(C(C)(C)O)c1)C1C=CS(=O)(=O)C1)c1ccc(-c2ccc(F)c(F)c2)cc1F` (stereo not shown) [I-24, N′-(1,1-dioxo-2,3-dihydro-1lambda6-thiophen-3-yl)-N′-{[2-(2-hydroxypropan-2-yl)pyridin-4-yl]methyl}-N,N-dimethyl-2-{3,3′,4′-trifluoro-[1,1′-biphenyl]-4-yl}propanediamide] the IC50 was less than 500 nM.
With `CN(C)C(=O)C(C(=O)N(Cc1nc(C2CC2)cs1)C1C=CS(=O)(=O)C1)c1ccc(-c2ccc(F)c(F)c2)cc1F` (stereo not shown) [I-25, N′-[(4-cyclopropyl-1,3-thiazol-2-yl)methyl]-N′-(1,1-dioxo-2,3-dihydro-1lambda6-thiophen-3-yl)-N,N-dimethyl-2-{3,3′,4′-trifluoro-[1,1′-biphenyl]-4-yl}propanediamide] the IC50 was less than 500 nM.
`COc1cc(CN(C(=O)Cn2cc(-c3ccc(F)cc3)cn2)[C@@H]2C=CS(=O)(=O)C2)ccn1` [I-26, N-[(3R)-1,1-dioxo-2,3-dihydro-1lambda6-thiophen-3-yl]-2-[4-(4-fluorophenyl)-1H-pyrazol-1-yl]-N-[(2-methoxypyridin-4-yl)methyl]acetamide] gave an IC50 of less than 500 nM.
Work on `COC(C(=O)N(Cc1ccnc(C(C)(C)O)c1)C1C=CS(=O)(=O)C1)c1ccc(-c2ccc(F)cc2)cc1F` (stereo not shown) [I-28, 2-{3,4′-difluoro-[1,1′-biphenyl]-4-yl}-N-(1,1-dioxo-2,3-dihydro-1lambda6-thiophen-3-yl)-N-{[2-(2-hydroxypropan-2-yl)pyridin-4-yl]methyl}-2-methoxyacetamide] yielded an IC50 of less than 500 nM.
Work on `COc1cc(CN(C(=O)Cc2ccc(S(F)(F)(F)(F)F)cc2)C2C=CS(=O)(=O)C2)ccn1` (stereo not shown) [I-29, N-(1,1-dioxo-2,3-dihydro-1lambda6-thiophen-3-yl)-N-[(2-methoxypyridin-4-yl)methyl]-2-[4-(pentafluoro-lambda6-sulfanyl)phenyl]acetamide] yielded an IC50 of less than 500 nM.
Compound `COCCOC(C(=O)N(Cc1ccnc(C(C)(C)O)c1)[C@@H]1C=CS(=O)(=O)C1)c1ccc(-c2ccc(F)c(F)c2)cc1F` (stereo partly drawn) [I-30, N-[(3R)-1,1-dioxo-2,3-dihydro-1lambda6-thiophen-3-yl]-N-{[2-(2-hydroxypropan-2-yl)pyridin-4-yl]methyl}-2-(2-methoxyethoxy)-2-{3,3′,4′-trifluoro-[1,1′-biphenyl]-4-yl}acetamide] has an IC50 of less than 500 nM.
`CC(C)(O)c1cc(CN(C(=O)Cc2ccc(-c3ccc(F)c(F)c3)cc2F)C2C=CS(=O)(=O)C2)ccn1` (stereo not shown) [I-32, N-(1,1-dioxo-2,3-dihydro-1lambda6-thiophen-3-yl)-N-{[2-(2-hydroxypropan-2-yl)pyridin-4-yl]methyl}-2-{3,3′,4′-trifluoro-[1,1′-biphenyl]-4-yl}acetamide] showed an IC50 of less than 500 nM.
In the case of `CN(C)C(=O)C(C(=O)N(Cc1ccnc(C(C)(C)O)c1)C1C=CS(=O)(=O)C1)c1ccc(-c2ccc(F)cc2)cc1` (stereo not shown) [I-34, N-(1,1-dioxo-2,3-dihydro-1lambda6-thiophen-3-yl)-2-{4′-fluoro-[1,1′-biphenyl]-4-yl}-N-{[2-(2-hydroxypropan-2-yl)pyridin-4-yl]methyl}-N′,N′-dimethylpropanediamide], the IC50 is reported as less than 500 nM.
`CSC(C(=O)N(Cc1ccnc(C(C)(C)O)c1)C1C=CS(=O)(=O)C1)c1ccc(-c2ccc(F)c(F)c2)cc1F` (stereo not shown) [I-36, N-(1,1-dioxido-2,3-dihydrothiophen-3-yl)-N-((2-(2-hydroxypropan-2-yl)pyridin-4-yl)methyl)-2-(methylthio)-2-(3,3′,4′-trifluoro-[1,1′-biphenyl]-4-yl)acetamide] was tested, and the IC50 was less than 500 nM.
Compound `COc1cc(CN(C(=O)C(C(=O)N(C)C)c2ccc(-c3ccc(F)c(F)c3)cc2F)C2C=CS(=O)(=O)C2)ccn1` (stereo not shown) [I-37, N′-(1,1-dioxo-2,3-dihydro-1lambda6-thiophen-3-yl)-N′-[(2-methoxypyridin-4-yl)methyl]-N,N-dimethyl-2-{3,3′,4′-trifluoro-[1,1′-biphenyl]-4-yl}propanediamide] has an IC50 of less than 500 nM.
